This is an account of results in US9624209B2, “Substituted phenylureas and phenylamides as vanilloid receptor ligands” (Gruenenthal GmbH, priority 2009, dated 2017).

T1 sequence (Q8NER1 whole entry): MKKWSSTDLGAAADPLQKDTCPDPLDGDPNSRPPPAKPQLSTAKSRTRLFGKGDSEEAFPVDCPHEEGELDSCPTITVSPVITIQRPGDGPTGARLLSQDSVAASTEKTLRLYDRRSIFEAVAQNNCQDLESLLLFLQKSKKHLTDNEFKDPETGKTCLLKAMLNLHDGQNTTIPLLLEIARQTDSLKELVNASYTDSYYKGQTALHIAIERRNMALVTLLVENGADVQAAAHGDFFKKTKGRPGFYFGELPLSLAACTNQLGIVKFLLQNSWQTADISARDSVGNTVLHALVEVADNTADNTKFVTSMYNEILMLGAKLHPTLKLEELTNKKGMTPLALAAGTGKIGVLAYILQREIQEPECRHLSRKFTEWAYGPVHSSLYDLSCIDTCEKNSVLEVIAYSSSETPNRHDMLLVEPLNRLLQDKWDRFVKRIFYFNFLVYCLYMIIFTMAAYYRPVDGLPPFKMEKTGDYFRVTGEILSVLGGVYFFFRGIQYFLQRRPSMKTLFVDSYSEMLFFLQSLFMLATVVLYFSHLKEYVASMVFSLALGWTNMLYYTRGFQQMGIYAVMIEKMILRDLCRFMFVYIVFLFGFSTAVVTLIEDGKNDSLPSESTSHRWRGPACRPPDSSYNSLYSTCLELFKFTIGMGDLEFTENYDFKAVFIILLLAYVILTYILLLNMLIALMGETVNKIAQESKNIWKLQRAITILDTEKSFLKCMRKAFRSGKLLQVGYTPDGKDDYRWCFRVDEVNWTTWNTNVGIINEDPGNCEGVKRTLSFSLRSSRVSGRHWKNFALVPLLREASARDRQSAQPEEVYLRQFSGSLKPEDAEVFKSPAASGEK

This assay addresses T1, vanilloid receptor 1 (VR1/TRPV1 receptor) (Homo sapiens, UniProt Q8NER1).
T1 construct: expressed in transfected cells; host or cells: CHO K1 cells (ECACC), stably transfected
Description: VR1/TRPV1 receptor affinity, capsaicin stimulus (human). As to conditions: Tables 8-12, read-out: (f) Ki (human being) [nM] Cap. The assay is classed as cell-based, human being.
As for `CC(C(=O)NCc1cc(C(C)(C)C)nn1-c1cccc(Cl)c1)c1ccc(CS(C)(=O)=O)c(F)c1` (stereo not drawn) [Example D7, N-[[5-tert-Butyl-2-(3-chlorophenyl)-2H-pyrazol-3-yl]-methyl]-2-[3-fluoro-4-(methylsulfonyl-methyl)-phenyl]-propionamide], the Ki (as a rule, the equilibrium dissociation constant of an inhibitor or competing ligand from its target) turned out to be 27 nM.

With `CC(C(=O)NCc1cc(C(F)(F)F)nn1-c1cccc(Cl)c1)c1ccc(CS(C)(=O)=O)c(F)c1` (stereo not drawn) [Example D6, N-[[2-(3-Chlorophenyl)-5-(trifluoromethyl)-2H-pyrazol-3-yl]-methyl]-2-[3-fluoro-4-(methylsulfonyl-methyl)-phenyl]-propionamide], the Ki was found to be 38 nM.

As for “N-(3-Chlorophenyl)-4-[1-[[2-(3-chlorophenyl)-5-(trifluoromethyl)-2H-pyrazol-3-yl]-methyl-carbamoyl]-ethyl]-benzamide [Example E32]”, the Ki was 48 nM.

With `CS(=O)(=O)NCc1ccc(NC(=O)NCc2cc(C(F)(F)F)nn2-c2cccc(F)c2)cc1F` [Example B48, 1-[3-Fluoro-4-(methanesulfonamido-methyl)-phenyl]-3-[[2-(3-fluorophenyl)-5-(trifluoromethyl)-2H-pyrazol-3-yl]-methyl]-urea], the Ki is 40 nM.

Consider `CS(=O)(=O)CCc1ccc(NC(=O)NCc2cc(C(F)(F)F)nn2-c2ccc(F)c(Cl)c2)cc1F` [Example D28, 1-[[2-(3-Chloro-4-fluoro-phenyl)-5-(trifluoromethyl)-2H-pyrazol-3-yl]-methyl]-3-[3-fluoro-4-(2-methylsulfonyl-ethyl)-phenyl]-urea], for which the Ki came out at 32 nM.

As for `CCNCc1ccc(NC(=O)NCc2cc(C(F)(F)F)nn2-c2cccc(Cl)c2)cc1F` [Example B24, 1-[[2-(3-Chlorophenyl)-5-(trifluoromethyl)-2H-pyrazol-3-yl]-methyl]-3-[4-(ethylamino-methyl)-3-fluoro-phenyl]-urea], the Ki was 55 nM.

As to `CS(=O)(=O)NCc1ccc(CC(=O)NCc2cc(C(F)(F)F)nn2-c2cccc(Cl)c2)cc1F` [Example B23, N-[[2-(3-Chlorophenyl)-5-(trifluoromethyl)-2H-pyrazol-3-yl]-methyl]-2-[3-fluoro-4-(methanesulfonamido-methyl)-phenyl]-acetamide], the Ki was 13 nM.

With `CC(C)c1cccc(-n2nc(C(F)(F)F)cc2CNC(=O)Nc2ccc(CNS(N)(=O)=O)c(F)c2)c1` [Example B80, 1-[3-Fluoro-4-[(sulfamoylamino)-methyl]-phenyl]-3-[[2-(3-isopropyl-phenyl)-5-(trifluoromethyl)-2H-pyrazol-3-yl]-methyl]-urea], the Ki is 2 nM.

For `COc1cc(C(C)C(=O)NCc2cc(C(F)(F)F)nn2-c2cccc(Cl)c2)ccc1CNS(C)(=O)=O` (stereo not drawn) [Example B76, N-[[2-(3-Chlorophenyl)-5-(trifluoromethyl)-2H-pyrazol-3-yl]-methyl]-2-[4-(methanesulfonamido-methyl)-3-methoxy-phenyl]-propionamide], the inhibitory constant (Ki) was determined as 12 nM.

With `CC(C)c1cccc(-n2nc(C(F)(F)F)cc2CNC(=O)C(C)c2ccc(CNS(C)(=O)=O)c(F)c2)c1` (stereo not drawn) [Example B82, 2-[3-Fluoro-4-(methanesulfonamido-methyl)-phenyl]-N-[[2-(3-isopropyl-phenyl)-5-(trifluoromethyl)-2H-pyrazol-3-yl]-methyl]-propionamide], the Ki came out at 0.8 nM.

Take `CC(C(=O)NCc1cc(C(C)(C)C)nn1-c1cccc(Cl)c1)c1ccc(CNS(C)(=O)=O)cc1` (stereo not drawn) [Example B6, N-[[5-tert-Butyl-2-(3-chlorophenyl)-2H-pyrazol-3-yl]-methyl]-2-[4-(methanesulfonamido-methyl)-phenyl]-propionamide]: the Ki amounted to 7 nM.

For the molecule `CCS(=O)(=O)NCc1ccc(NC(=O)NCc2cc(C(F)(F)F)nn2-c2cccc(Cl)c2)cc1` [Example B84, 1-[[2-(3-Chlorophenyl)-5-(trifluoromethyl)-2H-pyrazol-3-yl]-methyl]-3-[4-[[(ethylsulfonyl)amino]-methyl]-phenyl]-urea], the Ki is 53 nM.
